Series [1] in a line: esterase cleavage / half-life in rat blood plasma. The series is classed as in vitro ADME. The note with it: for esterase cleavage: after 1 h. The procedure: (§1) Almost 100 % esterase cleavage was found in rat blood plasma after 1 h, whereas about 70 % of the prodrug was cleaved within 4 hours in human blood plasma.
(§2) The half-life of Benzoyloxy(methoxy)carbonyl-Nphenethyl-Mirabegron in rat blood plasma and in human blood plasma was less than 0.5 h. Almost 100 % esterase cleavage was found in rat blood plasma after 1 h, whereas almost 100 % of the prodrug was cleaved within 4 hours in human blood plasma.

The nature of series [2]: esterase cleavage / half-life in human blood plasma. The note with it: for prodrug cleaved (esterase cleavage): within 4 hours. It counts as in vitro ADME. As for the experimental part: as §1, §2
A short description of series [3]: oral administration to rats, pharmacokinetics compared with Mirabegron. The series is classed as in vivo. The note with it: oral administration to Sprague Dawley rats, compared to the parent compound Mirabegron.

SMILES strings stand for the structures.

With `Nc1nc(CC(=O)Nc2ccc(CCN(C[C@H](O)c3ccccc3)C(=O)OCOC(=O)c3ccccc3)cc2)cs1` [Benzoyloxy(methoxy)carbonyl-Nphenethyl-Mirabegron], in series [1], the half-life result is on record as “less than 0.5 h” and the esterase cleavage is approximately 100%. Besides, in series [2], the half-life result was “less than 0.5 h” and the “prodrug cleaved (esterase cleavage)” value is reported as approximately 100%.
As for `CC(OC(=O)C(C)C)OC(=O)N(CCc1ccc(NC(=O)Cc2csc(N)n2)cc1)C[C@H](O)c1ccccc1` (stereo partly shown) [Enacarbil-Nphenethyl-Mirabegron], in series [1], the half-life result was “less than 0.5 h” and the esterase cleavage is approximately 100%. In addition, in series [2], the half-life entry is listed as “less than 2.5 h” and the “prodrug cleaved (esterase cleavage)” value is recorded as “about 70%”. In series [3], the Cmax entry was “higher” and the Tmax entry is “earlier”.

Source of the values: patent EP3360866B1, “[…]” (Alfred E. Tiefenbacher (GmbH & Co. KG), priority 2017, dated 2018).
